Values belong to the molecule of their own block, whether it stands above or below them. Groups on a side chain read outwards from the residue. No end group written: not given here. Glu2C18 = not defined here
Columns and labels:
resting platelets = experiment: Binding test to resting platelets (flow cytometry aggregation ratio); type: cell-based; conditions: resting platelets 2.0×10^4/μl, beads 1.0×10^5/μl, 37° C., 30 min
Description: (§1) Resting platelets (2.0×10^4/μl) were mixed with 1.0×10^5/μl of each of LB, H12-LB and CGGRGDF-LB [LB bound with a peptide having an RGD sequence (Arg-Gly-Asp)], followed by shaking (37° C., 30 min), and the aggregation ratio in each case was evaluated by flow cytometry. […] Based on this, it was confirmed that H12-LB hardly agglutinate to resting platelets when compared with CGGRGDF-LB.

[1] = tested on: platelets activated by adhering to collagen; experiment: Adhesion behavior of FITC-labeled latex beads on collagen-immobilized surface under flow in thrombocytopenia model blood; type: cell-based
Description: (§2) A thrombocytopenia model blood was prepared by passing whole blood-through a leukocyte removing filter for leukocyte depleted preparations (NEOIJ, Nihon Pall) by gravity, and adjusting the platelet concentration to 2.0×10^4/μl by adding platelet rich plasma (PRP) (an automatic blood cell counter K-4500, Sysmex, Kobe).
(§3) H12-LB (1.0×10^5 particles/μl) was added to 5 ml of the thrombocytopenia model blood, allowed to stand (37° C., 10 min), flowed on a collagen-immobilized surface using a pump (rate of shear 150 s^−1), and then observed under a fluorescence microscope or through a CCD camera. An adhesion occupying ratio [surface coverage (hereinafter referred to as “SC”)] of micro particles to each surface was measured using an image analyzer (Argus-50, Hamamatsu Photonics).
In addition, the number of H12-LB bound to the surface was inhibited when the platelet concentration was 0.2×10^4/μl (FIG. 2: •), and were hardly seen in the case of LB (FIG. 2: □).

platelets [2] = experiment: Aggregation test with platelets, latex beads as carrier: platelet adhesion on collagen-immobilized surface under flow in thrombocytopenia model blood; type: cell-based; conditions: after 180 seconds
Description: as §2, §3
Only platelets were subjected to fluorescence labeling [3,3′-dihexyloxacarbocyanine iodide (DiOC6)], and their adhesion behavior was periodically observed. As a result, SC of platelets on the surface increased with the lapse of time and was 3.1±0.4% after 180 seconds (FIG. 1: □, control). […] Thus, when H12-LB was added instead of LB, the platelet adhesion was further amplified than the case of the LB addition, and was 5.1±0.3% after 180 seconds, or amplified about 1.7 times than the control (FIG. 1: ∘).

[3] = Retention of H12-PEG-Glu2C18 in phospholipid vesicles (1H-NMR molar ratio after shaking); type: physicochemical; conditions: diluted 30 times with PBS, shaken at 37° C. for 12 hours
Description: In this connection, the prepared phospholipid vesicles (H12-PEG vesicles, 1.8 wt %) were diluted 30 times with PBS and shaken at 37° C. for 12 hours, and then the vesicles were precipitated by centrifugation (33000 rpm, 1 h) and dispersed, followed by freeze drying, and the resulting powder was subjected to ^1H-NMR measurement.

platelets [4] = experiment: Aggregation test with platelets, vesicles as carrier: platelet adhesion on collagen surface under flow in thrombocytopenic blood; type: cell-based; conditions: for SC of platelets (%): thrombocytopenic blood, platelets 5.0×10^4/μl, collagen surface, shear 150 s^-1, H12-PEG-Glu2C18 0.3 mol %
Description: Platelets were fluorescence-labeled with DiOC6, and the H12-PEG(PEG) vesicle (1.5 wt %, 200 μl) was added to 5 ml of the thrombocytopenic blood ([platelets]=5.0×10^4/μl), allowed to stand (37° C., 10 min), allowed to flow on the collagen surface at a rate of shear of 150 s^−1, and then observed under a fluorescence microscope. The SC of platelets on the surface was analyzed by Argus-20. When H12-PEG vesicle (H12-PEG-Glu2C18: 0.3 mol %) or PEG vesicle was added to the thrombocytopenic blood ([platelets]=5.0×10^4/μl) and allowed to flow on the collagen surface, the SC was increased in the H12-PEG vesicle-added system, in comparison with the PEG vesicle-added system (Table 1).

platelets [5] = experiment: Interaction with platelets, vesicles as carrier (flow cytometry, PAC-1 and vesicle binding); type: cell-based; conditions: thrombocytopenia plasma, platelets 5.0×10^4/μl, 30 min, 37° C.
Description: After 80 μl of thrombocytopenia plasma ([platelets]=5.0×10^4/μl) was prepared, fluorescence-labeled H12-PEG(PEG) vesicles (8.2 μM, 20 μl) or a fluorescence-labeled antibody and H12-PEG(PEG) vesicles (0.082 μM, 20 μl) were added thereto, followed by stirring (30 min, 37° C.). The mixture was subsequently subjected to formaldehyde (3.7%) fixation, diluted 10 times and then measured using flow cytometry.

[6] = target: T1, GPIIb/IIIa on resting platelets (UniProt P08514 32-1039; P05106 27-788, limits assumed); experiment: flow cytometry, fluorescence-labeled antibody on platelets, PEG vesicles added
T1 construct: whole, on cells; also called resting GPIIb/IIIa; normal platelets
T1 sequence (P08514 32-1039 limits assumed, chain 1 of 2): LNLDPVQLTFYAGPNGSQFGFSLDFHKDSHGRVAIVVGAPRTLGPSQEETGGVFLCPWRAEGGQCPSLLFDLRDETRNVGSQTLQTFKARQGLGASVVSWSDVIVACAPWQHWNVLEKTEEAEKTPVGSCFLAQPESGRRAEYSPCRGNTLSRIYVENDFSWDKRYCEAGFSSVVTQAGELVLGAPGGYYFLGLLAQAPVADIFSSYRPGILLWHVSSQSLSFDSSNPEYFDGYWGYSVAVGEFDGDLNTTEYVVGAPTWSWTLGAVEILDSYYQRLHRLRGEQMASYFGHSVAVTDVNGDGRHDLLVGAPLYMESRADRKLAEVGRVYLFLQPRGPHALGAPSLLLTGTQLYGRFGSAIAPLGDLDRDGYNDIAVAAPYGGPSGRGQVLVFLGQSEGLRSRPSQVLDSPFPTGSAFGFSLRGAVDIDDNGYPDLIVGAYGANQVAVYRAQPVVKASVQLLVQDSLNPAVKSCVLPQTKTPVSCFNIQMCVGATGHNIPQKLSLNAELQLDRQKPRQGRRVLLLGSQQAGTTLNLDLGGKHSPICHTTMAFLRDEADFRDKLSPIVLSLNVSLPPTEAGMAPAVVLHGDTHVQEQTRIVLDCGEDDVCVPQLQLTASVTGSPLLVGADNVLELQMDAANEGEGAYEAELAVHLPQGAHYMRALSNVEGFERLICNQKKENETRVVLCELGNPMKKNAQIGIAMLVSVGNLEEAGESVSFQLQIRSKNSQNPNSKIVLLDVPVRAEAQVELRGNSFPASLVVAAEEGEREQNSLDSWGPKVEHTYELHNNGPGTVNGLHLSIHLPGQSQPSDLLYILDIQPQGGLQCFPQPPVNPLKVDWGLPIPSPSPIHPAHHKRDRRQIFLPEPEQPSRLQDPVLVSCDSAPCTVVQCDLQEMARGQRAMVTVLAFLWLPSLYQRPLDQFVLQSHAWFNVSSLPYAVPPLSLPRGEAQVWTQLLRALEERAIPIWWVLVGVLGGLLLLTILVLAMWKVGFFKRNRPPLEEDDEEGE
T1 sequence (P05106 27-788 limits assumed, chain 2 of 2): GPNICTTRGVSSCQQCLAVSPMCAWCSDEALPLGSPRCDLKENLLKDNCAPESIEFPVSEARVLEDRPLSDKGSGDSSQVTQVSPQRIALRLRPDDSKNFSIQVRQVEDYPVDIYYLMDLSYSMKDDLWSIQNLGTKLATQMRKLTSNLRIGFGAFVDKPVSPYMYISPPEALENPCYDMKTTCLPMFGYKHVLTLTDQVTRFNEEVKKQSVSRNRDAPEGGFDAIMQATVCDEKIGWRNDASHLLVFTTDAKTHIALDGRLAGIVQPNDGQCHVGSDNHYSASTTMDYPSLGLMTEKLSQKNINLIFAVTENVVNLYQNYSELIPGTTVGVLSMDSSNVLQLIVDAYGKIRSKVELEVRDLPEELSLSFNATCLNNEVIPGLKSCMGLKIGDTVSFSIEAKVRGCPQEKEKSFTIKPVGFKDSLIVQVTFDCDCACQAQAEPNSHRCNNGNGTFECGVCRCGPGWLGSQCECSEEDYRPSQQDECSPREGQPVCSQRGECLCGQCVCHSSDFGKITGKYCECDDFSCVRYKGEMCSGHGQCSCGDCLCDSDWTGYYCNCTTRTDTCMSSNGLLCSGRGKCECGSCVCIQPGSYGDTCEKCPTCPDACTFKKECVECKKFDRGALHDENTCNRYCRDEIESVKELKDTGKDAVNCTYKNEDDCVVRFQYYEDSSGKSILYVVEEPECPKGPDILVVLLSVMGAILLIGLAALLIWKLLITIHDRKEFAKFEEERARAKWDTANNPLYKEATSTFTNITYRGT

[7] = target: T1, GPIIb/IIIa on resting platelets; experiment: flow cytometry, fluorescence-labeled antibody on platelets, H12-PEG(PEG) vesicles added
[8] = target: T1, GPIIb/IIIa on resting platelets; experiment: flow cytometry, fluorescence-labeled antibody on platelets, PBS added
[9] = target: T1, GPIIb/IIIa on resting platelets; experiment: flow cytometry, beads (1.0×10^5/µl) mixed with resting platelets (2.0×10^4/µl), 37° C., 30 min
Description: as §1, with “(2.0×10⁴/μl)” for “(2.0×10^4/μl)”, “1.0×10⁵/μl” for “1.0×10^5/μl”

Molecule: CGGRGDF-LB: LB bound with a peptide having an RGD sequence (Arg-Gly-Asp) (also: bound to latex beads (LB)) [reference compound]
aggregation ratio with resting platelets (resting platelets): 2.9 ± 1.3%

Molecule: H12-LB: Dodecapeptide H12 (SEQ ID NO: 1, via Cys and SPDP linker) coupled to rHSA-adsorbed latex beads of 1 μm diameter (CHHLGGAKQAGDV; cyclised or stapled)
number of beads bound to collagen surface ([1]; platelet concentration 0.2×10^4/μl (FIG. 2)): inhibited
SC of FITC-labeled beads bound to collagen surface ([1]; platelets 2.0×10^4/μl, shear 150 s^-1 (FIG. 2)): gradually increased
amplification of platelet adhesion versus control (LB) (platelets [2]): about 1.7 times
SC (surface coverage) of platelets on collagen surface (platelets [2]; shear 150 s^-1, platelets 2.0×10^4/μl, beads 1.0×10^5 particles/μl, DiOC6-labeled platelets): 5.1±0.3%
aggregation ratio with resting platelets (resting platelets): did not show increase

Molecule: H12-PEG vesicle: DPPC/cholesterol vesicle containing H12-PEG-Glu2C18 alone (C([MAL‑PEG3400-Glu2C18])HHLGGAKQAGDV-OH; not fully specified; reading uncertain)
stability: retention of H12-PEG-Glu2C18 in vesicles (molar ratio of DPPC, cholesterol and H12-PEG-Glu2C18) [3]: not released from the phospholipid vesicles but stably maintained
SC of platelets (%) (platelets [4]): 15.0 ± 5.0%

Molecule: H12-PEG(PEG) vesicle: DPPC/cholesterol vesicle containing PEG-Glu2C18 and H12-PEG-Glu2C18 (CHHLGGAKQAGDV-OH; not fully specified (residue 1))
PAC-1 binding (%) (platelets [5]; fluorescence-labeled antibody with vesicles): 3.7 ± 0.4%
vesicle binding (%) (platelets [5]; fluorescence-labeled vesicles): 1.4 ± 0.6%
SC of platelets on collagen surface (platelets [4]; H12-PEG-Glu2C18 modification ratio 0.1 mol % or less (FIG. 6)): almost the same as the case of PEG vesicle
SC of platelets on collagen surface (platelets [4]; H12-PEG-Glu2C18 modification ratio 0.3 mol % or more (FIG. 6)): the effect appears
SC of platelets (%) (platelets [4]): 17.3 ± 1.9%

PAC-1 binding (%) [6]: 3.4%
PAC-1 binding (%) [7]: 3.7%
PAC-1 binding (%) [8]: 3.8%
Molecule: PAC-1 (antibody)

aggregation ratio [9]: 2.9%
B1: CGGRGDF-LB [LB bound with a peptide having an RGD sequence (Arg-Gly-Asp)] (peptide)
peptide: CGGRGDF
modifications: also: bound to latex beads, coupling chemistry not described
notes: Comparison conjugate
